Our source for the relative viability values is the supplement of paper PMC10307832.

Test in all cases: relative viability (nuclei count vs DMSO), 5 days (fraction); higher = more cells survive
Compound in assay [1]: COc1cc2nccc(Oc3ccc(NC(=O)C4(C(=O)Nc5ccc(F)cc5)CC4)cc3)c2cc1OC [Cabozantinib] + CS(=O)(=O)N1CCN(Cc2cc3nc(-c4cccc5[nH]ncc45)nc(N4CCOCC4)c3s2)CC1 [Pictilisib] (partner 1 µM)
The gist of the method: (§1)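 Five library-drug doses in √10 steps were combined with a fixed anchor-drug dose, or a single drug was given alone, by pin tool to lung cancer cell lines in 1536-well plates the day after seeding. Nuclei were stained and counted after 5 days. Relative viability is the nuclei count in treated wells over that in vehicle wells, taken as the median of duplicate plates.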

Compound in assay [2]: O[C@@H](COc1cccc2ncccc12)CN1CCN([C@@H]2c3ccccc3[C@@H]3[C@H](c4ccccc42)C3(F)F)CC1 [Zosuquidar] + Cc1nc(NC(=O)N2CCC[C@H]2C(N)=O)sc1-c1ccnc(C(C)(C)C(F)(F)F)c1 [Alpelisib] (partner 2 µM)
The gist of the method: as §1

Compound in assay [3]: COc1cc2nccc(Oc3ccc(NC(=O)C4(C(=O)Nc5ccc(F)cc5)CC4)cc3)c2cc1OC [Cabozantinib] + COc1cc2c(Oc3ccc(NC(=O)C4(C(=O)Nc5ccc(F)cc5)CC4)cc3F)ccnc2cc1OCCCN1CCOCC1 [Foretinib] (partner 0.25 µM)
The procedure, abridged:
as §1

Compound in assay [4]: C1=CC(=CC=C1NC(=S)NNC2=C(C=C(C=C2[N+](=O)[O-])C(F)(F)F)[N+](=O)[O-])F [Kobe2602] + Nc1nc2[nH]cc(CCc3ccc(C(=O)N[C@@H](CCC(=O)O)C(=O)O)cc3)c2c(=O)[nH]1 [Pemetrexed] (partner 0.2 µM)
The gist of the method:
as §1

Turning to NCI-H596, the relative viability in assay [1] (first compound 0.02 µM) stood at 0.389; in assay [1] (first compound 0.06325 µM), 0.408; in assay [1] (first compound 0.2 µM) it was 0.388; in assay [1] (first compound 0.6325 µM) it was 0.27; in assay [1] (first compound 2 µM), 0.374; in assay [2] (first compound 0.01 µM), 0.467. In addition, the relative viability in assay [2] (first compound 0.03162 µM) came to 0.512; in assay [2] (first compound 0.1 µM) it was 0.502; in assay [2] (first compound 0.3162 µM), 0.589; in assay [2] (first compound 1 µM), 0.591; in assay [3] (first compound 0.02 µM), 0.89; in assay [3] (first compound 0.06325 µM) it was 1.09. Besides, the relative viability in assay [3] (first compound 0.2 µM) amounted to 0.9; in assay [3] (first compound 0.6325 µM), 0.906; in assay [3] (first compound 2 µM), 0.777; in assay [4] (first compound 0.2 µM), 0.541; in assay [4] (first compound 0.6325 µM), 0.523; in assay [4] (first compound 2 µM), 0.568. Moreover, the relative viability in assay [4] (first compound 6.325 µM) amounted to 0.505; in assay [4] (first compound 20 µM), 0.495.

As for NCI-H647, the relative viability in assay [1] (first compound 0.02 µM) came out at 0.434; in assay [1] (first compound 0.06325 µM), 0.571; in assay [1] (first compound 0.2 µM) it was 0.481; in assay [1] (first compound 0.6325 µM), 0.362; in assay [1] (first compound 2 µM) it was 0.398; in assay [2] (first compound 0.01 µM) it was 1.25. Besides, the relative viability in assay [2] (first compound 0.03162 µM) was 1.12; in assay [2] (first compound 0.1 µM) it was 1.28; in assay [2] (first compound 0.3162 µM) it was 1.11; in assay [2] (first compound 1 µM), 1.39; in assay [3] (first compound 0.02 µM), 1.23; in assay [3] (first compound 0.06325 µM), 1.1. For the same cell line, the relative viability in assay [3] (first compound 0.2 µM) was found to be 1.1; in assay [3] (first compound 0.6325 µM) it was 1.14; in assay [3] (first compound 2 µM), 0.981; in assay [4] (first compound 0.2 µM) it was 0.178; in assay [4] (first compound 0.6325 µM), 0.22; in assay [4] (first compound 2 µM), 0.174. The results for the relative viability in assay [4] (first compound 6.325 µM) and in assay [4] (first compound 20 µM) were 0.172 and 0.184, respectively.

Regarding NCI-H650, the relative viability in assay [1] (first compound 0.02 µM) came out at 0.765; in assay [1] (first compound 0.06325 µM), 1.02; in assay [1] (first compound 0.2 µM) it was 1.02; in assay [1] (first compound 0.6325 µM), 0.774; in assay [1] (first compound 2 µM) it was 0.868; in assay [2] (first compound 0.01 µM) it was 1.15. The relative viability in assay [2] (first compound 0.03162 µM) amounted to 0.94; in assay [2] (first compound 0.3162 µM), 1.09; in assay [2] (first compound 1 µM), 1.28; in assay [3] (first compound 0.06325 µM), 1.03; in assay [3] (first compound 0.2 µM) it was 1.06; in assay [3] (first compound 0.6325 µM) it was 0.999. The relative viability worked out at 0.984 in assay [3] (first compound 2 µM); 0.816 in assay [4] (first compound 0.2 µM); 1.04 in assay [4] (first compound 0.6325 µM); 0.867 in assay [4] (first compound 2 µM); 1.05 in assay [4] (first compound 6.325 µM); 0.889 in assay [4] (first compound 20 µM).

For NCI-H661, the relative viability is 0.301 in assay [1] (first compound 0.02 µM); 0.476 in assay [1] (first compound 0.06325 µM); 0.391 in assay [1] (first compound 0.2 µM); 0.394 in assay [1] (first compound 0.6325 µM); 0.331 in assay [1] (first compound 2 µM); 0.48 in assay [2] (first compound 0.01 µM). Further, the relative viability was found to be 0.621 in assay [2] (first compound 0.03162 µM); 0.408 in assay [2] (first compound 0.1 µM); 0.614 in assay [2] (first compound 0.3162 µM); 0.703 in assay [2] (first compound 1 µM); 0.985 in assay [3] (first compound 0.02 µM); 1.04 in assay [3] (first compound 0.06325 µM). Moreover, the relative viability in assay [3] (first compound 0.2 µM) was 1.01; in assay [3] (first compound 0.6325 µM) it was 1.02; in assay [3] (first compound 2 µM) it was 1.09; in assay [4] (first compound 0.2 µM), 0.893; in assay [4] (first compound 0.6325 µM), 0.947; in assay [4] (first compound 2 µM), 0.913. In addition, the relative viability amounted to 0.932 in assay [4] (first compound 6.325 µM) and 0.924 in assay [4] (first compound 20 µM).
